This passage reports IC50 and melting point results from patent US8722663B2, “Di-substituted pyridine derivatives as anticancers” (Otsuka Pharmaceutical Co., Ltd., priority 2010, dated 2014).

Structures can show the parent of a compound that is named as a salt.

Data set [1] relates to human hepatic cancer cell line (HuH-7). Briefly: Growth inhibition of HuH-7 cells, sulforhodamine B method. It is filed as cell-based. Particulars: Homo sapiens, 120 h, 5 days with test compound. The procedure:
Growth inhibition of a human breast cancer cell line (MDA-MB-468) was determined by the sulforhodamine B method based on the method of Skehan P. et al. (J Natl Cancer Inst. 1990 Jul. 4; 82(13): 1107-12). In the study, MDA-MB-468 cells were seeded on DMEM medium containing 10% fetal bovine serum in a 96-well microplate. After 24-h incubation at 37° C. in the presence of 5% carbon dioxide, the test compound was added and the cells were incubated for another 5 days. After incubation, a trichloroacetic acid solution was added to yield the final concentration of 10% and the cells were left to stand at 4° C. for 1 hour to fix. Then, the cells were washed with water to remove the medium and trichloroacetic acid and dried in the air. The dried cells were stored at 4° C. until they were stained with sulforhodamine B. To each well, 1% acetic acid solution containing 0.4% sulforhodamine B was added and left to stand for 20 to 30 minutes at room temperature. After discarding the supernatant, each well was washed with 1% acetic acid solution, and 10 mM Tris([…]) solution was added while stirring to elute the dye taken into the cells. Then, the optical density was determined at the measurement wavelength of 492 nm and the reference wavelength of 690 nm, and the difference was calculated. The cell growth activity in each well was defined as the value determined by subtracting the OD in the control well not containing cells (the difference in absorbance between 492 nm and 690 nm) from that in the test well.
(§1) The 50% inhibitory concentration (IC50 (nM)) of the test compound was determined by comparing the cell growth activity in the well containing the test compound with that of the control not containing the test compound.
The growth inhibition on a human hepatic cancer cell line (HuH-7) was also determined by the above method.

The test system of data set [2] is human prostate (adenocarcinoma) cell line (VcaP). Briefly: Growth inhibition of VcaP cells, WST-8 assay. It is filed as cell-based. The note with it: 120 h, 5 days with test compound. Here is the method:
(§2) The growth inhibition on a bicalutamide resistant human prostate cancer cell line established from LNCaP.FGC (LNCaP-Bic) (Hobisch A, et al. Prostate. 2006; 66(4):413-20.) was determined by a WST-8 assay according to the method of Singh A K, et al. (Cancer Lett. 1996 Oct. 1; 107(1): 109-15.). In this method, LNCaP-Bic cells were seeded in RPMI 1640 medium containing 10% fetal bovine serum in a 96-well microplate and incubated at 37° C. for 24 hours in the presence of 5% carbon dioxide. Then, the test compound was added and the cells were incubated for another 5 days. After incubation, a 15-μL volume of WST-8 (2-(2-methoxy-4-nitrophenyl)-3-(4-nitrophenyl)-5-(2,4-[…])-2H-tetrazolium, monosodium salt) was added. After the incubation for the time, the color reaction was stopped by adding 15 μL of 1% SDS (sodium dodecyl sulfate) solution and the optical density was determined at the measurement wavelength of 450 nm and the reference wavelength of 630 nm, and the difference was calculated. The cell growth activity in each well was defined as the value determined by subtracting the OD in the control well not containing cells (the difference in absorbance between 450 nm and 630 nm) from that in the test well.
as §1
The growth inhibition on a human prostate (adenocarcinoma) cell line (VcaP) (Korenchuk S, et al. In Vivo. 2001; 15(2):163-8.) was also determined by the above method.
(Formazan colour is commonly taken as a measure of viable cells.)

Data set [3] deals with human prostate (adenocarcinoma) cell line (PC-3). Kind of data set: Growth inhibition of PC-3 cells, WST-8 assay. The data set is classed as cell-based. Particulars: 120 h, 5 days with test compound. Here is the method: as §2, §1
The growth inhibition on a human prostate (adenocarcinoma) cell line (PC-3) (van Bokhoven A, et al. Prostate. 2003; 57(3):205-25.) was also determined by the above method.

In data set [4] the test system is human prostate (carcinoma) cell line (LNCaP.FGC). Briefly: Growth inhibition of LNCaP.FGC cells, WST-8 assay. It is filed as cell-based. The note with it: 120 h, 5 days with test compound. The procedure: as §2, §1
The growth inhibition on a human prostate (carcinoma) cell line (LNCaP.FGC) (van Bokhoven A, et al. Prostate. 2003; 57(3):205-25.) was also determined by the above method.

In data set [5] the test system is bicalutamide resistant human prostate cancer cell line established from LNCaP.FGC (LNCaP-Bic). Briefly: Growth inhibition of LNCaP-Bic cells, WST-8 assay. The data set is classed as cell-based. The note with it: 120 h, 5 days with test compound. Here is the method: as §2, §1
The test system of data set [6] is human prostate (carcinoma) cell line (DU 145). Briefly: Growth inhibition of DU 145 cells, WST-8 assay. It is filed as cell-based. The note with it: 120 h, 5 days with test compound. The procedure: as §2, §1
The growth inhibition on a human prostate (carcinoma) cell line (DU 145) (van Bokhoven A, et al. Prostate. 2003; 57(3):205-25.) was also determined by the above method.

The compound `Cc1cc(/C=C/C(=O)N2CCN(Cc3ccc(CCOc4ccc(F)cc4)cc3)CC2)cc(Cl)c1Oc1ccc(OCc2ccccc2Cl)cn1.Cl` [Example 449, (E)-3-[3-Chloro-4-({5-[(2-chlorobenzyl)oxy]pyridin-2-yl}oxy)-5-methylphenyl]-1-(4-{4-[2-(4-fluorophenoxy)ethyl]benzyl}piperazin-1-yl)prop-2-en-1-one hydrochloride] came in with a melting point of 211.9 to 214 °C. In data set [1], the IC50 was less than 10 nM.

`Cc1cc(/C=C/C(=O)N2CCN(Cc3ccc(Oc4ccc(Cl)cc4)cc3)CC2)cc(C)c1Oc1ccc(OCc2ccc(C#N)cc2)cn1.Cl` [Example 692, 4-{[(6-{4-[(E)-3-{4-[4-(4-Chlorophenoxy)benzyl]piperazin-1-yl}-3-oxoprop-1-en-1-yl]-2,6-dimethylphenoxy}pyridin-3-yl)oxy]methyl}benzonitrile hydrochloride] showed a melting point of 231.9 to 233.7 °C. Besides, the IC50 in data set [1] was less than 10 nM.

The compound `Cc1cc(/C=C/C(=O)N2CCN(Cc3ccc(COc4ccc(OC(C)C)cc4)cc3)CC2)cc(C)c1Oc1ccc(OCc2ccc(C#N)cc2)cn1.Cl` [Example 647, 4-({[6-(2,6-Dimethyl-4-{(E)-3-oxo-3-[4-(4-{[4-(propan-2-yloxy)phenoxy]methyl}benzyl)-piperazin-1-yl]prop-1-en-1-yl}phenoxy)pyridin-3-yl]oxy}methyl)benzonitrile hydrochloride] registered a melting point of 216.2 to 219.2 °C. In data set [1], this compound showed an IC50 of less than 10 nM.

In the case of `COc1cccc(OCCc2ccc(CN3CCN(C(=O)/C=C/c4ccc(Oc5ccc(OCc6ccc(F)cc6)cn5)c(Cl)c4)CC3)cc2)c1.Cl` [Example 757, (E)-3-[3-chloro-4-({5-[(4-fluorobenzyl)oxy]pyridin-2-yl}oxy)phenyl]-1-(4-{4-[2-(3-methoxyphenoxy)ethyl]benzyl}piperazin-1-yl)prop-2-en-1-one hydrochloride], the melting point was in the range of 201.5 to 202 °C. Further, the IC50 in data set [1] is less than 10 nM.

Take `Cc1ccc(OCCc2ccc(CN3CCN(C(=O)/C=C/c4cc(C)c(Oc5ccc(OCc6cncs6)cn5)c(C)c4)CC3)cc2)cc1.Cl` [Example 596, (E)-3-(3,5-Dimethyl-4-{[5-(1,3-thiazol-5-ylmethoxy)pyridin-2-yl]oxy}phenyl)-1-(4-{4-[2-(4-methylphenoxy)ethyl]benzyl}piperazin-1-yl)prop-2-en-1-one hydrochloride]: the melting point was 207 to 207.2 °C. For the same compound, the IC50 in data set [1] was less than 10 nM.

`COc1cc(/C=C/C(=O)N2CCN(Cc3ccc(CCOc4ccc(C)cc4)cc3)CC2)ccc1Oc1ccc(OCc2ccccc2Cl)cn1.Cl` [Example 482, (E)-3-[4-({5-[(2-Chlorobenzyl)oxy]pyridin-2-yl}oxy)-3-methoxyphenyl]-1-(4-{4-[2-(4-methylphenoxy)ethyl]benzyl}piperazin-1-yl)prop-2-en-1-one hydrochloride] returned a melting point of 203.4 to 205.7 °C. In data set [1], this compound showed an IC50 of less than 10 nM.

As for `Cc1cc(/C=C/C(=O)N2CCN(Cc3ccc(CCOc4ccc(C(C)C)cc4)cc3)CC2)cc(C)c1Oc1ccc(OCc2cscn2)cn1` [Example 600, (E)-3-(3,5-Dimethyl-4-{[5-(1,3-thiazol-4-ylmethoxy)pyridin-2-yl]oxy}phenyl)-1-[4-(4-{2-[4-(propan-2-yl)phenoxy]ethyl}benzyl)piperazin-1-yl]prop-2-en-1-one hydrochloride], the IC50 in data set [1], in data set [2], in data set [3], in data set [4], in data set [5] and in data set [6] was less than 10 nM in each case.

Consider `Cc1cc(/C=C/C(=O)N2CCN(Cc3ccc(CCOc4ccc(C(C)C)cc4)cc3)CC2)cc(Cl)c1Oc1ccc(OCc2ccc(Cl)nc2)cn1.Cl` [Example 443, (E)-3-[3-Chloro-4-({5-[(6-chloropyridin-3-yl)methoxy]pyridin-2-yl}oxy)-5-methylphenyl]-1-[4-(4-{2-[4-(propan-2-yl)phenoxy]ethyl}benzyl)piperazin-1-yl]prop-2-en-1-one hydrochloride], for which the melting point was in the range of 214.8 to 215.3 °C. The compound further gave an IC50 in data set [1] of less than 10 nM.

With `C/C(C(=O)N1CCN(Cc2ccc(CCOc3ccc(F)cc3)cc2)CC1)=C(/C)c1cc(C)c(Oc2ccc(OCc3ccc(C)cc3)cn2)c(Cl)c1.O=C(O)C(=O)O` [Example 751, (E)-3-[3-Chloro-5-methyl-4-({5-[(4-methylbenzyl)oxy]pyridin-2-yl}oxy)phenyl]-1-(4-{4-[2-(4-fluorophenoxy)ethyl]benzyl}piperazin-1-yl)-2-methylbut-2-en-1-one ethanedioate], the melting point was in the range of 236.1 to 236.6 °C. Further, the half-maximal inhibitory concentration (IC50) in data set [1] is less than 10 nM.

In data set [1], `CCOc1ccc(OCCOc2ccc(CN3CCN(C(=O)/C=C/c4cc(C)c(Oc5ccc(OCc6ccc(C)cc6)cn5)c(Cl)c4)CC3)cc2)cc1` [Example 315, (E)-3-[3-Chloro-5-methyl-4-({5-[(4-methylbenzyl)oxy]pyridin-2-yl}oxy)phenyl]-1-(4-{4-[2-(4-ethoxyphenoxy)ethoxy]benzyl}piperazin-1-yl)prop-2-en-1-one] showed an IC50 of less than 10 nM.

On to `COc1ccc(Oc2ccc3cc(CN4CCN(C(=O)/C=C/c5cc(C)c(Oc6ccc(OCc7ccccc7Cl)cn6)c(Cl)c5)CC4)ccc3n2)cc1.Cl` [Example 675, (E)-3-[3-Chloro-4-({5-[(2-chlorobenzyl)oxy]pyridin-2-yl}oxy)-5-methylphenyl]-1-(4-{[2-(4-methoxyphenoxy)quinolin-6-yl]methyl}piperazin-1-yl)prop-2-en-1-one hydrochloride], for which the melting point was 228 to 228.9 °C. Moreover, the IC50 in data set [1] was less than 10 nM.

In turn, `Cc1cc(/C=C/C(=O)N2CCN(Cc3ccc(CCOc4ccc(C(C)C)cc4)cc3)CC2)cc(Cl)c1Oc1ccc(OCc2cccnc2)cn1.Cl` [Example 445, (E)-3-(3-Chloro-5-methyl-4-{[5-(pyridin-3-ylmethoxy)pyridin-2-yl]oxy}phenyl)-1-[4-(4-{2-[4-(propan-2-yl)phenoxy]ethyl}benzyl)piperazin-1-yl]prop-2-en-1-one hydrochloride] had a melting point of 166.4 to 167.7 °C. This compound had an IC50 in data set [1] of less than 10 nM.

In data set [1], `COc1ccc(OCCc2ccc(CN3CCN(C(=O)/C=C/c4cc(C)c(Oc5ccc(OCc6ccc(C#N)cc6)cn5)c(C)c4)CCO3)cc2)cc1` [Example 402, 4-{[(6-{4-[(E)-3-(2-{4-[2-(4-Methoxyphenoxy)ethyl]benzyl}-1,2,5-oxadiazepan-5-yl)-3-oxoprop-1-en-1-yl]-2,6-dimethylphenoxy}pyridin-3-yl)oxy]methyl}benzonitrile] returned an IC50 of less than 10 nM.

In data set [1], `C=Cc1ccc(CN2CCN(C(=O)/C=C/c3cc(C)c(Oc4ccc(OCc5ccccc5Cl)cn4)c(Cl)c3)CC2)cc1` [Example 391, (E)-3-[3-chloro-4-({5-[(2-chlorobenzyl)oxy]pyridin-2-yl}oxy)-5-methylphenyl]-1-[4-(4-ethenylbenzyl)-piperazin-1-yl]prop-2-en-1-one] registered an IC50 of less than 10 nM.

Usually IC50 stands for the concentration that inhibits the measured activity by half. Usually melting point stands for the temperature, or range, at which the solid turns liquid.
